{
  "source": "patent US9381142B2",
  "about": "“Olfactory adaptation and cross-adapting agents to reduce the perception of body odors” (Monell Chemical Senses Center, priority 2002, dated 2016)",
  "key": {"[1]": {"test_system": "male stress-derived axillary odor", "assay": "Cross-adaptation of male stress-derived axillary odor (odor panel, magnitude estimation of perceived intensity)", "type": "in vivo, human", "settings": "for Magnitude of Reduction of Intensity of Male Stress-Derived Odor (MSDO), Males: male stress-derived odor perceived by men; for Magnitude of Reduction of Intensity of Male Stress-Derived Odor (MSDO), Females: male stress-derived odor perceived by women", "excerpt": "(§1) The procedure relies upon an individual constantly sniffing an adapting agent, such as a fragrance, and occasionally a test odorant. Perceived intensity of the test odorant is obtained by using psychophysical, magnitude-estimation procedures. These perceived intensities are obtained every 30 seconds over the test period, and are then compared with baseline perceived intensities obtained before the individual began sniffing the adapting agent. Throughout the testing we observe adaptation to the adapting agent. Results during trials with an inserted test odorant, such as the axillary odor used here, are believed to be reasonably predictive. If the perceived intensity of the test odorant decreases during the test, then the adapting agent cross-adapts the test odorant and becomes a cross-adapting agent. If the cross-adapting agent is itself not offensive, then the cross-adapting agent becomes a candidate for use in formulations in consumer products to ameliorate malodors, such as axillary odor or fecal/urine odors, and odors related to the female menstrual cycle.\n(§2) Collection of secretions: Apocrine secretions obtained under stressed conditions provided the axillary odor that was used as the test odorant to evaluate the effectiveness of various adapting agents. Secretions were obtained from males (ages 20 to 60 years) and females (ages 20 to 40 years) in good health. […] Volunteers prepared their axillae for collection of apocrine secretions by refraining from deodorant use for 3 days and shaving their axillae the morning of the collection day.\n(§3) Volunteers were rested in a supine position. The axillary regions were washed with isopropanol-soaked pads and injected intradermally with 1:10,000 adrenalin (in physiologic saline). This injection stimulated the secretion of apocrine gland secretions, which were collected in 10 μl pipettes, passed into 0.25 ml Eppendorf tubes, and stored on ice (or frozen for longer storage). The amount of secretion collected varied greatly with the individual subject (≦10 μl). The apocrine secretions from each volunteer were combined by consecutively washing each Eppendorf tube with 2×300 μl of doubly distilled water. This aqueous-apocrine fluid was transferred to a 5 ml round-bottomed flask for hydrolysis. X-N. Zeng, J. J. Leyden, J. G. Brand, A. I. Spielman, K. J. McGinley, G. Preti, An Investigation of Human Apocrine Gland Secretion for Axillary Odor Precursors, 18 J. Chem. Ecol. 1039-1055 (1992); X-N. Zeng, J. J. Leyden, A. I. Spielman and G. Preti Analysis of the characteristic human female axillary odors: Qualitative comparison to males. 22 J. Chem. Ecol. 237-257 (1996).\n(§4) Production of odor: To produce quantities of stress-derived axillary odor for testing purposes, we hydrolyzed the apocrine secretion. The aqueous solution was refluxed for 20 min with 0.5 ml, 5% aqueous sodium hydroxide under a stream of nitrogen. The mixture was allowed to cool to room temperature, and then it was cooled in ice prior to being acidified with 6 N HCl to pH 2. The resulting axillary odor developed in the reaction mixture upon acidification was used as the test odorant. The axillary odors generated by this in vitro technique are analogous to the malodors produced by stressed individuals.\nSixteen (16) individuals (8 of each gender) served on an odor panel. Subjects ranged in age from 22 to 55 years (mean 32.7±10.6 s.d.), were not pregnant (by verbal report), and were all non-smokers. All panel members were screened for adequate use of magnitude estimation (some people have difficulties maintaining a ratio scale, i.e., when an odorant is half as strong as the previous, these people fail to provide a number that is half the previous estimate) and further trained in its use during 2-3 training sessions. All 16 subjects were tested with samples of male malodor compared to each of the potential cross-adapting agents. […]"}, "[2]": {"test_system": "female stress-derived axillary odor", "assay": "Cross-adaptation of female stress-derived axillary odor (odor panel, magnitude estimation of perceived intensity)", "type": "in vivo, human", "settings": "for Magnitude of Reduction of Intensity of Female Stress-Derived Odor (FSDO), Males: female stress-derived odor perceived by men; for Magnitude of Reduction of Intensity of Female Stress-Derived Odor (FSDO), Females: female stress-derived odor perceived by women", "excerpt": "as §1, §2, §3, §4\nA separate panel of 24 subjects (12 males and 12 females) tested samples of female stress-derived axillary odor with potential cross-adapting agents, some of which were not included in Example 1 above. Some of the subjects assessing the effectiveness of cross-adaptation of male stress-derived axillary odor were also used in the experiment with female secretions. However, these two experiments were treated as independent events. All panel members were screened for adequate use of magnitude estimation and further trained in its use during two to three training sessions. […]"}},
  "data": [
    {"molecule": "CC(CO)CCCc1ccccc1", "note": "(centres unmarked) [Rosaphen ®, 2-methyl-5-phenylpentan-1-ol]; further: key: best: Best = Superior Cross-Adaptation; good: Good = Adequate Cross-Adaptation; poor: Poor = Ineffective Cross-Adaptation", "values": [
      {"measurement": "Magnitude of Reduction of Intensity of Male Stress-Derived Odor (MSDO), Males", "setting": "[1]", "value": "best"},
      {"measurement": "Magnitude of Reduction of Intensity of Male Stress-Derived Odor (MSDO), Females", "setting": "[1]", "value": "poor"},
      {"measurement": "Magnitude of Reduction of Intensity of Female Stress-Derived Odor (FSDO), Males", "setting": "[2]", "value": "good"},
      {"measurement": "Magnitude of Reduction of Intensity of Female Stress-Derived Odor (FSDO), Females", "setting": "[2]", "value": "poor"}
    ]},
    {"molecule": "CC(C)=CC1CC(C)CCO1", "note": "(centres unmarked) [Rose Oxide hc, 4-methyl-2-(2-methyl-1-propenyl)tetrahydro-2H-pyran]", "values": [
      {"measurement": "Magnitude of Reduction of Intensity of Male Stress-Derived Odor (MSDO), Males", "setting": "[1]", "value": "poor"},
      {"measurement": "Magnitude of Reduction of Intensity of Male Stress-Derived Odor (MSDO), Females", "setting": "[1]", "value": "good"},
      {"measurement": "Magnitude of Reduction of Intensity of Female Stress-Derived Odor (FSDO), Males", "setting": "[2]", "value": "good"},
      {"measurement": "Magnitude of Reduction of Intensity of Female Stress-Derived Odor (FSDO), Females", "setting": "[2]", "value": "good"}
    ]},
    {"molecule": "CCC(=CCC1CC=C(C)C1(C)C)CO", "note": "(centres unmarked) [Sandranol ®, 2-ethyl-4-(2,2,3-trimethyl-3-cyclopenten-1-yl)-2-buten-1-ol]", "values": [
      {"measurement": "Magnitude of Reduction of Intensity of Male Stress-Derived Odor (MSDO), Males", "setting": "[1]", "value": "good"},
      {"measurement": "Magnitude of Reduction of Intensity of Male Stress-Derived Odor (MSDO), Females", "setting": "[1]", "value": "poor"},
      {"measurement": "Magnitude of Reduction of Intensity of Female Stress-Derived Odor (FSDO), Males", "setting": "[2]", "value": "good"},
      {"measurement": "Magnitude of Reduction of Intensity of Female Stress-Derived Odor (FSDO), Females", "setting": "[2]", "value": "good"}
    ]},
    {"molecule": "CC1=CC(C)C(C=O)CC1", "note": "(centres unmarked) [Vertocitral, 2,4-dimethyl-3-cyclohexene-1-carboxaldehyde]", "values": [
      {"measurement": "Magnitude of Reduction of Intensity of Male Stress-Derived Odor (MSDO), Males", "setting": "[1]", "value": "good"},
      {"measurement": "Magnitude of Reduction of Intensity of Male Stress-Derived Odor (MSDO), Females", "setting": "[1]", "value": "best"},
      {"measurement": "Magnitude of Reduction of Intensity of Female Stress-Derived Odor (FSDO), Males", "setting": "[2]", "value": "best"},
      {"measurement": "Magnitude of Reduction of Intensity of Female Stress-Derived Odor (FSDO), Females", "setting": "[2]", "value": "best"}
    ]},
    {"molecule": "O=C1CCCCCCCCCCCCCCO1", "note": "[cpd Supra, oxacyclohexadecan-2-one]", "values": [
      {"measurement": "Magnitude of Reduction of Intensity of Male Stress-Derived Odor (MSDO), Males", "setting": "[1]", "value": "poor"},
      {"measurement": "Magnitude of Reduction of Intensity of Male Stress-Derived Odor (MSDO), Females", "setting": "[1]", "value": "poor"},
      {"measurement": "Magnitude of Reduction of Intensity of Female Stress-Derived Odor (FSDO), Males", "setting": "[2]", "value": "good"},
      {"measurement": "Magnitude of Reduction of Intensity of Female Stress-Derived Odor (FSDO), Females", "setting": "[2]", "value": "good"}
    ]},
    {"molecule": "CC=CC(=O)C1C(C)=CCCC1(C)C", "note": "(stereo not drawn) [α-Damascone, 1-(2,6,6-trimethyl-2-cyclohexen-1-yl)-2-buten-1-one]", "values": [
      {"measurement": "Magnitude of Reduction of Intensity of Male Stress-Derived Odor (MSDO), Males", "setting": "[1]", "value": "poor"},
      {"measurement": "Magnitude of Reduction of Intensity of Male Stress-Derived Odor (MSDO), Females", "setting": "[1]", "value": "poor"},
      {"measurement": "Magnitude of Reduction of Intensity of Female Stress-Derived Odor (FSDO), Males", "setting": "[2]", "value": "poor"},
      {"measurement": "Magnitude of Reduction of Intensity of Female Stress-Derived Odor (FSDO), Females", "setting": "[2]", "value": "good"}
    ]},
    {"molecule": "l-carvone", "values": [
      {"measurement": "Magnitude of Reduction of Intensity of Male Stress-Derived Odor (MSDO), Males", "setting": "[1]", "value": "best"},
      {"measurement": "Magnitude of Reduction of Intensity of Male Stress-Derived Odor (MSDO), Females", "setting": "[1]", "value": "best"},
      {"measurement": "Magnitude of Reduction of Intensity of Female Stress-Derived Odor (FSDO), Males", "setting": "[2]", "value": "good"},
      {"measurement": "Magnitude of Reduction of Intensity of Female Stress-Derived Odor (FSDO), Females", "setting": "[2]", "value": "best"}
    ]},
    {"molecule": "oxacyclohexadecen-2-one [GLOBALIDE ®]", "values": [
      {"measurement": "Magnitude of Reduction of Intensity of Male Stress-Derived Odor (MSDO), Males", "setting": "[1]", "value": "good"},
      {"measurement": "Magnitude of Reduction of Intensity of Male Stress-Derived Odor (MSDO), Females", "setting": "[1]", "value": "poor"},
      {"measurement": "Magnitude of Reduction of Intensity of Female Stress-Derived Odor (FSDO), Males", "setting": "[2]", "value": "poor"},
      {"measurement": "Magnitude of Reduction of Intensity of Female Stress-Derived Odor (FSDO), Females", "setting": "[2]", "value": "good"}
    ]}
  ]
}
